Laboratory results from ChEMBL document CHEMBL5375966, “Exploiting the "Hot-Spots" of Hsp70-Bim Protein-Protein Interaction to Optimize the 1-Oxo-1H-phenalene-2,3-dicarbonitrile Analogues as Specific Hsp70-Bim Inhibitors” (J Med Chem, 2023).
Each block holds one compound with its values, some of them ahead of it. Active and inactive are the calls of the source. No cut-off for these calls is given here.

What was measured:
[1] = Inhibition of Bim (unknown origin)- N-terminal 6His-tagged human recombinant HSP70 NBD (1 to 383 residues) expressed in Escherichia coli BL21 (DE3) protein protein interaction assessed as suppression of BimBH3-stimulated HSP70 ATPase activity
[2] = Inhibition of Fam-labeled BimBH3 peptide binding to N-terminal 6His-tagged human recombinant HSP70 NBD (1 to 383 residues) expressed in Escherichia coli BL21 (DE3) assessed as inhibition constant incubated for 24 hrs by fluorescence polarization assay
BV-173 = assay: Induction of apoptosis in human BV-173 cells incubated for 24 hrs by annexin V/PI staining based flow cytometry analysis; type: functional, cell-based; conditions: BV-173, 24 h
BaF3 = assay: Induction of apoptosis in mouse BaF3 cells assessed as apoptotic rate at 15 uM incubated for 24 hrs by annexin V/PI staining based flow cytometry analysis relative to control; type: toxicity, cell-based; conditions: baf3, 24 h
K562 [3] = assay: Induction of apoptosis in human K562 cells incubated for 24 hrs by annexin V/PI staining based flow cytometry analysis; type: functional, cell-based; conditions: K562, 24 h
HEK293 = assay: Induction of apoptosis in human HEK293 cells assessed as apoptotic rate at 15 uM incubated for 24 hrs by annexin V/PI staining based flow cytometry analysis relative to control; type: toxicity, cell-based; conditions: hek293, 24 h
[4] = Induction of apoptosis in human Imatinib-resistant K562-R3 cells incubated for 24 hrs by annexin V/PI staining based flow cytometry analysis; type: functional; conditions: Imatinib-resistant K562-R3 cell
K562 [5] = assay: Inhibition of HSP70-Bag3 protein protein interaction in human K562 cells at 10 uM incubated for 12 hrs by Co-IP analysis; type: cell-based
[6] = Induction of apoptosis in human HEK293 cells incubated for 24 hrs by annexin V/PI staining based flow cytometry analysis; type: toxicity, cell-based
Homo sapiens = organism: Homo sapiens; assay: Inhibition of N-terminal 6His-tagged human recombinant HSP70 NBD (1 to 383 residues) expressed in Escherichia coli BL21 (DE3) ATPase activity
[7] = Induction of apoptosis in mouse BaF3 cells incubated for 24 hrs by annexin V/PI staining based flow cytometry analysis; type: toxicity, cell-based
[8] = Inhibition of Fam-labeled BimBH3 peptide binding to N-terminal 6His-tagged human recombinant HSP70 NBD (1 to 383 residues) Y149A mutant expressed in Escherichia coli BL21 (DE3) assessed as dissociation constant incubated for 24 hrs by fluorescence polarization assay
K562 [9] = assay: Inhibition of HSP70-Bim protein protein interaction in human K562 cells assessed as decrease in EIF4e protein expression at 2 uM incubated for 12 hrs by Western blot analysis; type: cell-based
[10] = Toxicity in BALB/c nu/nu mouse xenografted with Bcr-Abl independent human Imatinib-resistant K562-R1 cells assessed as reduction in body weight at 2 mg/kg, ip administered every day for 14 days and measured every 3 days; type: organism-based; conditions: in vivo, 336 h, time 14 day
[11] = Half life in Sprague-Dawley rat at 3 mg/kg, iv measured upto 24 hrs by LC-MS/MS analysis; type: ADME, organism-based; conditions: in vivo
Mus musculus [12] = assay: (§1) In vivo disruption of HSP70-Bim protein protein interaction in BALB/c nu/nu mouse xenografted with Bcr-Abl independent human Imatinib-resistant K562-R1 cells at 2 mg/kg, ip administered every day for 14 days and measured on day 15 by Co-IP analysis; type: functional, organism-based; conditions: time 15.0 day
[13] = Cmax in Sprague-Dawley rat at 3 mg/kg, iv measured upto 24 hrs by LC-MS/MS analysis; type: ADME, organism-based; design: dose 3 mg/kg, time < 24 hrs, route iv; conditions: in vivo
[14] = Antitumor activity against Bcr-Abl independent human Imatinib-resistant K562-R1 cells xenografted in BALB/c nu/nu mouse assessed as reduction in tumor weight by measuring T/C ratio at 2 mg/kg, ip administered every day for 14 days and measured on day 15; type: functional; conditions: time 14 day
[15] = test system: Imatinib-resistant K562-R1; assay: Antitumor activity against Bcr-Abl independent human Imatinib-resistant K562-R1 cells xenografted in BALB/c nu/nu mouse assessed as reduction in tumor growth at 2 mg/kg, ip administered every day for 14 days and measured on day 15; type: functional, organism-based; conditions: time 15.0 day
K562 [16] = assay: Inhibition of HSP70-Bim protein protein interaction in human K562 cells assessed as decrease in AKT protein expression at 2 uM incubated for 12 hrs by Western blot analysis; type: cell-based
[17] = Inhibition of Fam-labeled BimBH3 peptide binding to N-terminal 6His-tagged human recombinant HSP70 NBD (1 to 383 residues) D225T mutant expressed in Escherichia coli BL21 (DE3) assessed as inhibition constant incubated for 24 hrs by fluorescence polarization assay
K562 [18] = assay: Induction of apoptosis in HSP70 shRNA transfected human K562 cells assessed as increase in Annexin V+ cells at 2 uM incubated for 24 hrs by Annexin V/PI staining based flow cytometry analysis; type: functional, cell-based
[19] = Inhibition of Fam-labeled BimBH3 peptide binding to N-terminal 6His-tagged human recombinant HSP70 NBD (1 to 383 residues) Y149A mutant expressed in Escherichia coli BL21 (DE3) assessed as inhibition constant incubated for 24 hrs by fluorescence polarization assay
K562 [20] = assay: Induction of apoptosis in Bim shRNA transfected human K562 cells assessed as increase in cleaved PARP level at 2 uM incubated for 24 hrs by Western blot analysis; type: functional, cell-based
[21] = Inhibition of Fam-labeled BimBH3 peptide binding to wild type N-terminal 6His-tagged human recombinant HSP70 NBD (1 to 383 residues) expressed in Escherichia coli BL21 (DE3) assessed as dissociation constant incubated for 24 hrs by fluorescence polarization assay
K562 [22] = assay: Induction of apoptosis in Bim shRNA transfected human K562 cells assessed as increase in Annexin V+ cells at 2 uM incubated for 24 hrs by Annexin V/PI staining based flow cytometry analysis; type: functional, cell-based
Mus musculus [23] = assay: as §1, with “cells assessed as destabilization of EIF4e protein level” for “cells”, “immunoblot” for “Co-IP”; type: functional, organism-based; conditions: time 15.0 day
K562 [24] = assay: Inhibition of HSP70-Bim protein protein interaction in human K562 cells incubated for 12 hrs by Co-IP analysis; type: cell-based; conditions: dose 0-5 µM
[25] = AUCt in Sprague-Dawley rat at 3 mg/kg, iv measured upto 24 hrs by LC-MS/MS analysis; type: ADME, organism-based; design: time < 24 hrs, dose 3 mg/kg, route iv; conditions: in vivo
Mus musculus [26] = assay: as §1, with “cells assessed as destabilization of AKT protein level” for “cells”, “immunoblot” for “Co-IP”; type: functional, organism-based; conditions: time 15.0 day
[27] = Tmax in Sprague-Dawley rat at 3 mg/kg, iv measured upto 24 hrs by LC-MS/MS analysis; type: ADME, organism-based; conditions: in vivo
K562 [28] = assay: Induction of apoptosis in HSP70 shRNA transfected human K562 cells assessed as increase in cleaved PARP level at 2 uM incubated for 24 hrs by Western blot analysis; type: functional, cell-based
[29] = Clearance in Sprague-Dawley rat at 3 mg/kg, iv measured upto 24 hrs by LC-MS/MS analysis; type: ADME, organism-based; conditions: in vivo
K562 [30] = assay: Inhibition of HSP70-Bim protein protein interaction in human K562 cells assessed as decrease in EIF4e phosphorylation at 2 uM incubated for 12 hrs by Western blot analysis; type: cell-based
K562 [31] = assay: Inhibition of HSP70-Bim protein protein interaction in human K562 cells assessed as decrease in AKT phosphorylation at 2 uM incubated for 12 hrs by Western blot analysis; type: cell-based
[32] = Inhibition of Fam-labeled BimBH3 peptide binding to N-terminal 6His-tagged human recombinant HSP70 NBD (1 to 383 residues) D225T mutant expressed in Escherichia coli BL21 (DE3) assessed as dissociation constant incubated for 24 hrs by fluorescence polarization assay

inhibition [1]: Active
SMILES: COC(=O)CCNC1=C(C#N)C(=O)c2cccc3c(Sc4cccc(N)c4)ccc1c23
Ki [2]: 18.9 µM

inhibition [1]: Active
SMILES: N#CC1=C(NCCN2CCOCC2)c2ccc(SC3CCCCC3)c3cccc(c23)C1=O
Ki [2]: 1.8 µM

inhibition [1]: Active
SMILES: COC(=O)CCNC1=C(C#N)C(=O)c2cccc3c(SCCc4ccccc4)ccc1c23
Ki [2]: > 20 µM

inhibition [1]: Active
SMILES: N#CC1=C(NCCC(=O)NC2CCCCC2)c2ccc(SC3CCCCC3)c3cccc(c23)C1=O
Ki [2]: 11 µM

inhibition [1]: Active
SMILES: COC(=O)CCNC1=C(C#N)C(=O)c2cccc3c(Sc4ccc(Br)cc4)ccc1c23
Ki [2]: 2.5 µM

inhibition [1]: Active
SMILES: COC(=O)CCNC1=C(C#N)C(=O)c2cccc3c(Sc4ccccc4)ccc1c23
Ki [2]: 4.5 µM

inhibition [1]: Active
SMILES: CCN(CC)CCNC1=C(C#N)C(=O)c2cccc3c(SC4CCCC4)ccc1c23
Ki [2]: 0.32 µM

inhibition [1]: Active
SMILES: CCOC(=O)CN1CCN(CCNC2=C(C#N)C(=O)c3cccc4c(SC5CCCCC5)ccc2c34)CC1
Ki [2]: 4.1 µM

inhibition [1]: Active
SMILES: COC(=O)CCNC1=C(C#N)C(=O)c2cccc3c(Sc4ccc(N)cc4)ccc1c23
Ki [2]: > 20 µM

inhibition [1]: Active
SMILES: COC(=O)CCNC1=C(C#N)C(=O)c2cccc3c(Sc4ccc(C)cc4)ccc1c23
Ki [2]: 3.4 µM

inhibition [1]: Active
SMILES: N#CC1=C(NCCC(=O)NCc2ccccc2)c2ccc(SC3CCCCC3)c3cccc(c23)C1=O
Ki [2]: 14.4 µM

The next lines start with the compound.

SMILES: CCCCNC(=O)CCNC1=C(C#N)C(=O)c2cccc3c(SC4CCCCC4)ccc1c23
inhibition [1]: Active
Ki [2]: 0.88 µM

SMILES: N#CC1=C(NCCN2CCN(Cc3ccccc3)CC2)c2ccc(SC3CCCCC3)c3cccc(c23)C1=O
inhibition [1]: Active
Ki [2]: > 20 µM

SMILES: COC(=O)CCNC1=C(C#N)C(=O)c2cccc3c(Sc4ccc(C(C)C)cc4)ccc1c23
inhibition [1]: Active
Ki [2]: 16.2 µM

SMILES: CN(C)CCNC1=C(C#N)C(=O)c2cccc3c(SC4CCCCC4)ccc1c23
EC50 (BV-173): 1.1 µM
Activity (BaF3): < 10%
EC50 (K562 [3]): 2.4 µM
inhibition [1]: Active
Activity (HEK293): > 10%
EC50 [4]: 0.45 µM
Ki [2]: 0.57 µM

SMILES: CCn1c(=O)/c(=C2\Sc3ccccc3N2C)s/c1=C\c1cccc[n+]1CC
inhibition (K562 [5]): Active

SMILES: COC(=O)CCNC1=C(C#N)C(=O)c2cccc3c(SCCO)ccc1c23
inhibition [1]: Active
Ki [2]: > 20 µM

SMILES: N#Cc1ccc(COC[C@H]2O[C@@H](n3c(NCc4ccc(Cl)c(Cl)c4)nc4c(N)ncnc43)[C@H](O)[C@@H]2O)cc1
EC50 (BV-173): 5.8 µM
EC50 (K562 [3]): 7.8 µM
EC50 [4]: 8.5 µM
EC50 at 24 h [6]: 7.7 µM
inhibition (Homo sapiens): Active
Ki [2]: > 20 µM
EC50 at 24 h [7]: 5.5 µM

SMILES: N#CC1=C(NCCC(=O)O)c2ccc(SC3CCCCC3)c3cccc(c23)C1=O
inhibition [1]: Active
Ki [2]: > 20 µM

SMILES: CCN(CC)CCNC1=C(C#N)C(=O)c2cccc3c(SC4CCCCC4)ccc1c23
Kd [8]: 1.58 µM
inhibition (K562 [9]): Active
Activity [10]: Non-Toxic
half-life [11]: 5.2 h
Activity (Mus musculus [12]): Active
EC50 (BV-173): 0.62 µM
Activity (BaF3): < 10%
Cmax [13]: 2300 ng/mL
T/C [14]: 33.51%
EC50 (K562 [3]): 1.3 µM
IC50 [1]: 15.8 µM
inhibition [1]: Dose-Dependent Effect
Activity [15]: Active
Activity (HEK293): < 10%
inhibition (K562 [16]): Active
Ki [17]: 5.15 µM
Activity (K562 [18]): inactive
Ki [19]: 2.72 µM
inhibition (K562 [5]): inactive
EC50 [4]: 0.34 µM
Activity (K562 [20]): inactive
Kd [21]: 0.21 µM
Activity (K562 [22]): inactive
Activity (Mus musculus [23]): Active
inhibition (K562 [24]): Dose-Dependent Effect
AUC(0-t) at 24 h [25]: 12200 ng·h/mL
Activity (Mus musculus [26]): Active
Ki [2]: 0.25 µM
Tmax [27]: 1 h
Activity (K562 [28]): inactive
clearance [29]: 4.1 mL/min/kg
inhibition (K562 [30]): Active
inhibition (K562 [31]): Active
Kd [32]: 3.12 µM

SMILES: COC(=O)CCNC1=C(C#N)C(=O)c2cccc3c(SC4CCCCC4)ccc1c23
EC50 (BV-173): 6.1 µM
Activity (BaF3): < 10%
EC50 (K562 [3]): 9.4 µM
inhibition [1]: Active
Activity (HEK293): < 10%
EC50 [4]: 1.7 µM
Ki [2]: 2.6 µM

SMILES: CCNCCNC1=C(C#N)C(=O)c2cccc3c(SC4CCCCC4)ccc1c23
inhibition [1]: Active
Ki [2]: 0.72 µM

SMILES: COC(=O)CCNC1=C(C#N)C(=O)c2cccc3c(SC4CCCC4)ccc1c23
inhibition [1]: Active
Ki [2]: 2.2 µM

SMILES: CCCCSc1ccc2c3c(cccc13)C(=O)C(C#N)=C2NCCC(=O)OC
inhibition [1]: Active
Ki [2]: 14.5 µM

SMILES: COC(=O)CCNC1=C(C#N)C(=O)c2cccc3c(Sc4ccc(C(C)(C)C)cc4)ccc1c23
inhibition [1]: Active
Ki [2]: > 20 µM
